Molecular target: ROCK2 (human) (UniProt O75116)
Test: Inhibition of ROCK2 Kinase Activity

Sequence of ROCK2 (human) (O75116 whole entry, looked up): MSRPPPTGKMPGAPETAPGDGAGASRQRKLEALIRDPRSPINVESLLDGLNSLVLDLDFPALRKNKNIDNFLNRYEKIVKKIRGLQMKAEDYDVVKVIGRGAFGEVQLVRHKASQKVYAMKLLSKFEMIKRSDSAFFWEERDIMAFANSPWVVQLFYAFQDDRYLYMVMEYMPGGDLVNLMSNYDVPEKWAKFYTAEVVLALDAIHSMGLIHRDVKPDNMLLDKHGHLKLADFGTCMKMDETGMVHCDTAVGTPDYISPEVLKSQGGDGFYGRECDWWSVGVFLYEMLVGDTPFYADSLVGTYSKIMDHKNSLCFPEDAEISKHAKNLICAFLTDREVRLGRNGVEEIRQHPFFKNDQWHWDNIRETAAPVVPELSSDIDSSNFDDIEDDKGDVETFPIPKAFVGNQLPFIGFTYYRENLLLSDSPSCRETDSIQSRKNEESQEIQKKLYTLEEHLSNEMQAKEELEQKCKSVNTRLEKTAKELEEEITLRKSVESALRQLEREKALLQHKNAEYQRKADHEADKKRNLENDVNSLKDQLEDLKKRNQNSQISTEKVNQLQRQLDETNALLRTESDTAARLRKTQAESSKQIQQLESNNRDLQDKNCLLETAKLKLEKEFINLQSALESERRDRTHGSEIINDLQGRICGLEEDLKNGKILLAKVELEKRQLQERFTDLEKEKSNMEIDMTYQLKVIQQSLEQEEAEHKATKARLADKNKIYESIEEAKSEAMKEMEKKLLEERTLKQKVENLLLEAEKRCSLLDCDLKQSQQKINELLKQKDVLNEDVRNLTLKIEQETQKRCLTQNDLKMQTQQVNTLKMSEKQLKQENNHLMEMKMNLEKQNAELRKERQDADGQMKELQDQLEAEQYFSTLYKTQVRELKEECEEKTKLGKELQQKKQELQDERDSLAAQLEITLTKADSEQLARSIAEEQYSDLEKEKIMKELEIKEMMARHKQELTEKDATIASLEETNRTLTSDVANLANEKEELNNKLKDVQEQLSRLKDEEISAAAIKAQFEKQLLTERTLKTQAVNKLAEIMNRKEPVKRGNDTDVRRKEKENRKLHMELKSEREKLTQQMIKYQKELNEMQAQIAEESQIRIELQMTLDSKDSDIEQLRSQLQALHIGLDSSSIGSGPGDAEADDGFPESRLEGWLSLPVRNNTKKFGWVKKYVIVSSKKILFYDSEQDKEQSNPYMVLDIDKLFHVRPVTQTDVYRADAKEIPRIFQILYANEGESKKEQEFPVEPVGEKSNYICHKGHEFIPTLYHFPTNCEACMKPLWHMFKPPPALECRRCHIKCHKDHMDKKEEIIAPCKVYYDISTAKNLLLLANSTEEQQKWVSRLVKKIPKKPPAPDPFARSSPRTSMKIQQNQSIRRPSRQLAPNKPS

| Structure (SMILES) | IC50 |
| --- | --- |
| Cn1cccc1C(=O)NCC(N)c1ccc(C(=O)Nc2ccncc2)cc1 (stereo not drawn) | 500 to 5000 nM |
| COc1cccc(CC(=O)N(C)CC(N)c2ccc(C(=O)Nc3ccncc3)cc2)c1 (stereo not drawn) | 50 to 500 nM |
| NC(CNC(=O)c1ccc([N+](=O)[O-])o1)c1ccc(C(=O)Nc2ccncc2)cc1 (stereo not drawn) | 500 to 5000 nM |
| NC(CNC(=O)c1ccc(Cl)cc1)c1ccc(C(=O)Nc2ccncc2)cc1 (stereo not drawn) | 500 to 5000 nM |
| CN(CC(N)c1ccc(C(=O)Nc2ccncc2)cc1)C(=O)C1CCSc2ccccc21 (stereo not drawn) | 5000 to 50000 nM |
| COc1ccc(Cl)cc1NC(=O)NCC(N)c1ccc(C(=O)Nc2ccncc2)cc1 (stereo not drawn) | 50 to 500 nM |
| CC(C)(C(=O)N1CCCC1C(N)c1ccc(C(=O)Nc2ccncc2)cc1)c1ccc(F)cc1 (stereo not drawn) | 500 to 5000 nM |
| NC(CNC(=S)Nc1ccc(Cl)cc1)c1ccc(C(=O)Nc2ccncc2)cc1 (stereo not drawn) | 50 to 500 nM |
| NC(CNC(=O)CC1C=CCC1)c1ccc(C(=O)Nc2ccncc2)cc1 (stereo not drawn) | 50 to 500 nM |
| CN(CC(N)c1ccc(C(=O)Nc2ccncc2)cc1)C(=O)C1Cc2ccccc21 (stereo not drawn) | 50 to 500 nM |
| NC(CC(=O)NCCc1ccc2c(c1)OCO2)c1ccc(C(=O)Nc2ccncc2)cc1 (stereo not drawn) | 50 to 500 nM |
| NC(c1ccc(C(=O)Nc2ccncc2)cc1)C1CCCN1C(=O)C1(c2ccc(F)cc2)CC1 (stereo not drawn) | 500 to 5000 nM |
| CN(CC(N)c1ccc(C(=O)Nc2ccncc2)cc1)C(=O)C(C)(C)c1ccc(Cl)cc1 (stereo not drawn) | 500 to 5000 nM |
| NC(c1ccc(C(=O)Nc2ccncc2)cc1)C1CCCN1C(=O)Cc1c(Cl)cccc1Cl (stereo not drawn) | 500 to 5000 nM |
| NC(CC(=O)NCCc1ccc2c(c1)Cc1ccccc1-2)c1ccc(C(=O)Nc2ccncc2)cc1 (stereo not drawn) | 50 to 500 nM |
| COc1cccc(CCNC(=O)CC(N)c2ccc(C(=O)Nc3ccncc3)cc2)c1 (stereo not drawn) | 50 to 500 nM |
| NC(CNC(=O)c1cccc(F)c1)c1ccc(C(=O)Nc2ccncc2)cc1 (stereo not drawn) | 500 to 5000 nM |
| NC(CNC(=O)Nc1cccc2ccccc12)c1ccc(C(=O)Nc2ccncc2)cc1 (stereo not drawn) | 50 to 500 nM |
| CCCCNC(=O)NCC(N)c1ccc(C(=O)Nc2ccncc2)cc1 (stereo not drawn) | 500 to 5000 nM |
| CN(CC(N)c1ccc(C(=O)Nc2ccncc2)cc1)C(=O)C1(c2ccc(F)cc2F)CC1 (stereo not drawn) | 500 to 5000 nM |
| NC(CNC(=O)Cc1cccs1)c1ccc(C(=O)Nc2ccncc2)cc1 (stereo not drawn) | 50 to 500 nM |
| COCC(=O)NCC(N)c1ccc(C(=O)Nc2ccncc2)cc1 (stereo not drawn) | 500 to 5000 nM |
| NC(CNC(=O)CNC(=O)c1ccco1)c1ccc(C(=O)Nc2ccncc2)cc1 (stereo not drawn) | 50 to 500 nM |
| NC(CC(=O)NCCc1ccc(Cl)cc1)c1ccc(C(=O)Nc2ccncc2)cc1 (stereo not drawn) | 50 to 500 nM |
| CN(CC(N)c1ccc(C(=O)Nc2ccncc2)cc1)C(=O)Cc1c[nH]c2ccccc12 (stereo not drawn) | 500 to 5000 nM |

| Structure (SMILES) | IC50 |
| --- | --- |
| NC(CC(=O)NCCc1ccc(Cl)cc1Cl)c1ccc(C(=O)Nc2ccncc2)cc1 (stereo not drawn) | 50 to 500 nM |
| CCCOc1ccc(C(=O)NCC(N)c2ccc(C(=O)Nc3ccncc3)cc2)cc1 (stereo not drawn) | 500 to 5000 nM |
| NC(CC(=O)NCc1cccc2ccccc12)c1ccc(C(=O)Nc2ccncc2)cc1 (stereo not drawn) | 50 to 500 nM |
| NC(CNC(=O)c1cccc(S(=O)(=O)Nc2ccccc2)c1)c1ccc(C(=O)Nc2ccncc2)cc1 (stereo not drawn) | 500 to 5000 nM |
| CC(NC(=O)CC(N)c1ccc(C(=O)Nc2ccncc2)cc1)c1ccccc1 (stereo not drawn) | 50 to 500 nM |
| CN(CC(N)c1ccc(C(=O)Nc2ccncc2)cc1)C(=O)Cc1ccc(Br)cc1 (stereo not drawn) | 500 to 5000 nM |
| CC(C)(C(=O)NCC(N)c1ccc(C(=O)Nc2ccncc2)cc1)c1ccc(F)cc1 (stereo not drawn) | 50 to 500 nM |
| COc1cccc2cc(C(=O)NCC(N)c3ccc(C(=O)Nc4ccncc4)cc3)oc12 (stereo not drawn) | 50 to 500 nM |
| CCCC(=O)NCC(N)c1ccc(C(=O)Nc2ccncc2)cc1 (stereo not drawn) | 500 to 5000 nM |
| CC(C)(NC(=O)CC(N)c1ccc(C(=O)Nc2ccncc2)cc1)c1ccc(Cl)cc1 (stereo not drawn) | 50 to 500 nM |
| Cc1cccc(CC(=O)N2CCCC2C(N)c2ccc(C(=O)Nc3ccncc3)cc2)c1 (stereo not drawn) | 500 to 5000 nM |
| NC(c1ccc(C(=O)Nc2ccncc2)cc1)C1CCCN1C(=O)C1(c2cccc(F)c2)CCCC1 (stereo not drawn) | 500 to 5000 nM |
| NC(CNC(=O)CCc1ccccc1)c1ccc(C(=O)Nc2ccncc2)cc1 (stereo not drawn) | 50 to 500 nM |
| NC(CC(=O)NCc1ccco1)c1ccc(C(=O)Nc2ccncc2)cc1 (stereo not drawn) | 50 to 500 nM |
| NC(CNC(=O)c1ccccc1Nc1ccccc1)c1ccc(C(=O)Nc2ccncc2)cc1 (stereo not drawn) | 500 to 5000 nM |
| NC(CC(=O)N[C@@H]1CCc2ccccc21)c1ccc(C(=O)Nc2ccncc2)cc1 (stereo partly drawn) | 50 to 500 nM |
| NC(c1ccc(C(=O)Nc2ccncc2)cc1)C1CCCN1C(=O)C1(c2ccc(Cl)c(Cl)c2)CC1 (stereo not drawn) | 500 to 5000 nM |
| NC(CC(=O)NCc1ccc2c(c1)OCO2)c1ccc(C(=O)Nc2ccncc2)cc1 (stereo not drawn) | 50 to 500 nM |
| NC(CNC(=O)c1cc2cc(Cl)ccc2o1)c1ccc(C(=O)Nc2ccncc2)cc1 (stereo not drawn) | 500 to 5000 nM |
| NC(CC(=O)NCCc1c(Cl)cccc1Cl)c1ccc(C(=O)Nc2ccncc2)cc1 (stereo not drawn) | 50 to 500 nM |
| NC(CC(=O)NCc1cc(C(F)(F)F)cc(C(F)(F)F)c1)c1ccc(C(=O)Nc2ccncc2)cc1 (stereo not drawn) | 50 to 500 nM |
| NC(c1ccc(C(=O)Nc2ccncc2)cc1)C1CCCN1C(=O)C(c1ccccc1)C1CCCC1 (stereo not drawn) | 500 to 5000 nM |
| CC(C)(NC(=O)CC(N)c1ccc(C(=O)Nc2ccncc2)cc1)c1ccccc1 (stereo not drawn) | 50 to 500 nM |
| CC(C)(C(=O)N1CCCC1C(N)c1ccc(C(=O)Nc2ccncc2)cc1)c1ccc(Cl)c(Cl)c1 (stereo not drawn) | 500 to 5000 nM |
| NC(CNC(=O)[C@H]1CCC(=O)N1)c1ccc(C(=O)Nc2ccncc2)cc1 (stereo partly drawn) | 50 to 500 nM |

| Structure (SMILES) | IC50 |
| --- | --- |
| CN(CC(N)c1ccc(C(=O)Nc2ccncc2)cc1)C(=O)C1(c2ccc(F)c(F)c2)CCC1 (stereo not drawn) | 500 to 5000 nM |
| Cc1cccc(CC(=O)N(C)CC(N)c2ccc(C(=O)Nc3ccncc3)cc2)c1 (stereo not drawn) | 500 to 5000 nM |
| CN(CC(N)c1ccc(C(=O)Nc2ccncc2)cc1)C(=O)Cc1ccc(F)cc1F (stereo not drawn) | 500 to 5000 nM |
| NC(CNC(=O)NC1CCCCC1)c1ccc(C(=O)Nc2ccncc2)cc1 (stereo not drawn) | 500 to 5000 nM |
| NC(c1ccc(C(=O)Nc2ccncc2)cc1)C1CCCN1C(=O)C1(c2ccc(F)cc2)CCCC1 (stereo not drawn) | 500 to 5000 nM |
| NC(CNC(=O)C1(c2ccsc2)CC1)c1ccc(C(=O)Nc2ccncc2)cc1 (stereo not drawn) | 50 to 500 nM |
| CN(CC(N)c1ccc(C(=O)Nc2ccncc2)cc1)C(=O)Cc1cncc(Br)c1 (stereo not drawn) | 500 to 5000 nM |
| NC(CC(=O)NC1CCN(Cc2ccccc2)CC1)c1ccc(C(=O)Nc2ccncc2)cc1 (stereo not drawn) | 50 to 500 nM |
| NC(CNC(=O)C1(c2ccccc2)CC1)c1ccc(C(=O)Nc2ccncc2)cc1 (stereo not drawn) | 500 to 5000 nM |
| CC(C)C(C)NC(=O)CC(N)c1ccc(C(=O)Nc2ccncc2)cc1 (stereo not drawn) | 50 to 500 nM |
| N[C@@H](CNC(=O)C1(c2ccc(Cl)cc2)CC1)c1ccc(C(=O)Nc2ccncc2)cc1 | 500 to 5000 nM |
| CCOC(=O)CCNC(=O)NCC(N)c1ccc(C(=O)Nc2ccncc2)cc1 (stereo not drawn) | 500 to 5000 nM |
| NC(CNC(=O)c1cccc(Cl)c1)c1ccc(C(=O)Nc2ccncc2)cc1 (stereo not drawn) | 500 to 5000 nM |
| NC(CNC(=O)c1ccoc1)c1ccc(C(=O)Nc2ccncc2)cc1 (stereo not drawn) | 50 to 500 nM |
| CC(C)CCC(=O)NCC(N)c1ccc(C(=O)Nc2ccncc2)cc1 (stereo not drawn) | 500 to 5000 nM |
| Cc1ccc(C)c(CNC(=O)CC(N)c2ccc(C(=O)Nc3ccncc3)cc2)c1 (stereo not drawn) | 50 to 500 nM |
| NC(CNC(=O)C1(c2ccc(F)cc2Cl)CC1)c1ccc(C(=O)Nc2ccncc2)cc1 (stereo not drawn) | 50 to 500 nM |
| NC(CC(=O)NCC1CC1)c1ccc(C(=O)Nc2ccncc2)cc1 (stereo not drawn) | 50 to 500 nM |
| NC(c1ccc(C(=O)Nc2ccncc2)cc1)C1CCCN1C(=O)Cc1ccc(Cl)cc1F (stereo not drawn) | 500 to 5000 nM |
| CONC(=O)CC(N)c1ccc(C(=O)Nc2ccncc2)cc1 (stereo not drawn) | 50 to 500 nM |
| CC(Cc1c[nH]c2ccccc12)NC(=O)CC(N)c1ccc(C(=O)Nc2ccncc2)cc1 (stereo not drawn) | 50 to 500 nM |
| NC(CC(=O)NCc1cccc(Cl)c1Cl)c1ccc(C(=O)Nc2ccncc2)cc1 (stereo not drawn) | 50 to 500 nM |
| NC(CC(=O)NCc1ccncc1)c1ccc(C(=O)Nc2ccncc2)cc1 (stereo not drawn) | 50 to 500 nM |
